Test results: patent US20030212115A1, “Remedies for inflammatory bowel diseases” (priority 2000, published 2003)

What was measured:
acetate-caused colitis = assay: Acetate-caused colitis model; format: in vivo, Syrian strain male hamster; details: for area of ulcer: three times (18 h and 1 h before, 6 h after cause of colitis), anatomized 24 hours later, FIG. 1; for amount of the haemoglobin (index of the enteric hemorrhage): three times, washing supernatant of large intestine, 24 hours later, FIG. 2
Description: (1) Acetate-Caused Colitis Model.
(§1) After 1% aqueous acetic acid (10 ml/kg) is injected from anus of Syrian strain male hamster (7 weeks of ages) into large intestine with a flexible, oral sonde for rat, colitis was caused by clipping anus for 30 minutes. Distilled water was similarly injected into a normal group.
0.5% CMC (10 ml/kg) was orally administered to the normal group and the control group, and 10, 30 and 100 mg/10 ml/kg of a test drug suspended into 0.5% CMC were orally administered to the group administrated test drug three times in total, 18 hours and 1 hour before cause of colitis and 6 hours after cause, respectively.
They were anatomized 24 hours later, and large intestines of 7 cm length were sampled from anus. Then, these intestinals were incised, and these enterics were washed by physiological salt solution (5 ml). they were taken a picture of incised large intestines, and ulcer area (cm^2) was calculated by the image analysis. Moreover, the washing supernatant of large intestine was supplied for the measurement of the amount of the haemoglobin (index of the amount of the enteric hemorrhage).
As a test drug, 2-[5-amino-6-oxo-2-phenyl-1,6-dihydro-1-pyrimidinyl]-N-[1-[[5-(t-butyl)-1,3,4-oxadiazole-2-yl]carbonyl]-2-methylpropyl]acetamide (Compound 34) was used. FIG. 1 and FIG. 2 show the results.

[1] = test system: picrylsulfonic acid (TNBS)-caused colitis; assay: Picrylsulfonic acid (TNBS)-caused colitis model; format: in vivo, Syrian strain male hamster; details: for area of the ulcer: once a day before cause, then twice a day, anatomized 5 days later, FIG. 3; for amount of the haemoglobin (index of the enteric hemorrhage): supernatant of washing of large intestine, 5 days later, FIG. 4
Description: (2) Picrylsulfonic Acid (TNBS)-Caused Colitis Model.
as §1, with “90 mg/ml of TNBS/isotonic solution (with 15 vol % ethanol) liquor (0.1 ml/body)” for “1% aqueous acetic acid (10 ml/kg)”
0.5% CMC (10 ml/kg) was orally administered to the normal group and the control group, and 25, 50 and 100 mg/10 ml/kg doses of a test drug suspended into 0.5% CMC were orally administered to the group administrated test drug once a day before cause of colitis and twice a day until the day of cause before anatomy, respectively.
They were anatomized 5 days later, and large intestines of 3 cm length were sampled from anus. Then, these intestinals were incised, and these enterics were washed by physiological salt solution (2 ml). they were taken a picture of incised large intestines, and ulcer area (cm^2) was calculated by the image analysis. Moreover, the supernatant of washing of large intestine was supplied to the measurement of the amount of the haemoglobin (index of the amount of the enteric hemorrhage).
As a test drug, compound 34 was used as well as example (1). FIG. 3 and FIG. 4 show the results.

CC(C)C(NC(=O)Cn1c(-c2ccccc2)ncc(N)c1=O)C(=O)c1nnc(C(C)(C)C)o1 (centres unmarked) [compound 34, 2-[5-amino-6-oxo-2-phenyl-1,6-dihydro-1-pyrimidinyl]-N-[1-[[5-(t-butyl)-1,3,4-oxadiazole-2-yl]carbonyl]-2-methylpropyl]acetamide]
intentionally suppressed: area of ulcer (acetate-caused colitis; 30 mg/kg orally) | amount of the haemoglobin (index of the enteric hemorrhage) (acetate-caused colitis; 30 mg/kg orally) | area of ulcer (acetate-caused colitis; 100 mg/kg orally) | amount of the haemoglobin (index of the enteric hemorrhage) (acetate-caused colitis; 100 mg/kg orally) | area of the ulcer ([1]; 50 mg/kg orally) | amount of the haemoglobin (index of the enteric hemorrhage) ([1]; 50 mg/kg orally) | area of the ulcer ([1]; 100 mg/kg orally) | amount of the haemoglobin (index of the enteric hemorrhage) ([1]; 100 mg/kg orally)
